# Assays:
# [1] = tested on: Enterobacter aerogenes; test: MIC, bacteria, TSB pH 7; type: cell-based; conditions: Klebsiella aerogenes, 48 h
# Procedure: (§1) Minimum inhibitory concentration (MIC) studies were conducted to determine the lowest level of biocide required to inhibit growth of bacteria and fungi. Tests were conducted in 96-well microtiter plates. Biocides were added to growth media in the plates and serially diluted to obtain a range of concentrations. Bacterial tests were conducted in trypticase soy broth (TSB; pH 7) using an overnight inoculum added at 10^6 colony forming units per ml. […] Fungal tests were conducted in malt extract broth (MEB; pH 4.7) using an 5-7 day inoculum added at 10^4 colony forming units per ml.
# [2] = tested on: Bacteria; test: MIC, average over bacteria; type: cell-based
# Procedure: as §1
# [3] = tested on: Acremonium strictum; test: MIC, fungi, MEB pH 4.7; type: cell-based; conditions: Sarocladium strictum, 168 h
# Procedure: as §1
# [4] = tested on: Candida albicans; test: MIC, fungi, MEB pH 4.7; type: cell-based; conditions: 168 h
# Procedure: as §1
# [5] = tested on: Field Isolate (fungi); test: MIC, fungi, MEB pH 4.7; type: cell-based; conditions: 168 h, MEB pH 4.7, 25° C., 7 days
# Procedure: as §1
# [6] = tested on: Fusarium solani; test: MIC, fungi, MEB pH 4.7; type: cell-based; conditions: 168 h
# Procedure: as §1
# [7] = tested on: Fusarium sp.; test: MIC, fungi, MEB pH 4.7; type: cell-based; conditions: 168 h, MEB pH 4.7, 25° C., 7 days
# Procedure: as §1
# [8] = tested on: Geotrichum candidum; test: MIC, fungi, MEB pH 4.7; type: cell-based; conditions: 168 h
# Procedure: as §1
# [9] = tested on: Rhodotorula rubra; test: MIC, fungi, MEB pH 4.7; type: cell-based; conditions: 168 h
# Procedure: as §1
# [10] = tested on: Trichosporon sp.; test: MIC, fungi, MEB pH 4.7; type: cell-based; conditions: 168 h
# Procedure: as §1
# [11] = tested on: Fungi; test: MIC, average over fungi; type: cell-based
# Procedure: as §1
# [12] = tested on: bacteria and fungi; test: MIC pH 9.0 versus pH 7.1, all nine organisms; type: cell-based; conditions: over the nine organisms tested
# Procedure: Minimum inhibitory concentration (MIC) studies were conducted to determine the lowest level of biocide required to inhibit growth of bacteria and fungi. Tests were conducted in 96-well microtiter plates. Biocides were added to growth media in the plates and serially diluted to obtain a range of concentrations. Tests were conducted in one-half strength trypticase soy broth (TSB; adjusted to pH 7.1 or pH 9.0). Bacteria and fungi were added to samples at 10^6 colony forming units per ml and incubated at 30° C. for three days. MIC values were determined visually on a growth no-growth basis.
# [13] = Stability in high pH metalworking fluid use dilutions (HPLC); type: physicochemical; conditions: for % MIT Remaining: 25° C.
# Procedure: Stability studies were conducted in three high pH metalworking fluid use dilutions to compare the persistence of MIT biocide versus CMIT biocide, tested alone and in combination with MCC). Aliquots of the use-diluted fluids were dosed with 17.5 ppm active CMIT/MIT and CMIT/MIT/MCC and stored at 25° C. Biocide concentrations were determined at time zero and weekly using high performance liquid chromatography (HPLC) analysis.
smiles,measurement,setting,value
"Cn1sccc1=O [MI, 2-methyl-4-isothiazolin-3-one]",MIC,[1],82 µg/mL
same,MIC,[2]; average over the bacteria tested,24 µg/mL
same,MI: CMI + MI MIC Ratio,"[2]; bacteria, ratio of average MICs",10.9
same,MIC,[3],16 µg/mL
same,MIC,[4],100 µg/mL
same,MIC,[5]; first listed,8 µg/mL
same,MIC,[5]; second listed,21 µg/mL
same,MIC,[5]; third listed,6 µg/mL
same,MIC,[6],13 µg/mL
same,MIC,[7],25 µg/mL
same,MIC,[8],250 µg/mL
same,MIC,[9],125 µg/mL
same,MIC,[10],63 µg/mL
same,MI: CMI + MI MIC Ratio,"[11]; fungi, ratio of average MICs",46.8
same,MIC,"[11]; read-out: MIC, Average",63 µg/mL
same,change of MIC at pH 9.0 versus pH 7.1,[12],≤ 2 ×
same,% MIT Remaining,"[13]; Soluble Fluid 1 (pH 9.2), 2 wk",95%
same,% MIT Remaining,"[13]; Soluble Fluid 1 (pH 9.2), 4 wk",100%
same,% MIT Remaining,"[13]; Soluble Fluid 3 (pH 9.3), 2 wk",95%
same,% MIT Remaining,"[13]; Soluble Fluid 3 (pH 9.3), 4 wk",100%
same,% MIT Remaining,"[13]; Synthetic Fluid 2 (pH 9.4), 1 wk",92%
same,% MIT Remaining,"[13]; Synthetic Fluid 2 (pH 9.4), 3 wk",94%
same,biocide active retained,[13]; after 3-4 weeks in all three high pH use-diluted fluids,greater than 90%

# Reference: US7699995B2, “Water treatment method” (priority 2006, dated 2010)
